Assays:
C. ljungdahlii ERI-2 [1] = assay: Carboxylic acid reduction in batch cultures with constant syngas supply; type: cell-based, Clostridium ljungdahlii; settings: 15 mM carboxylic acid; for max. opt. density at 600 nm: triplicate
Procedure: (§1) All chemicals were purchased from Sigma-Aldrich, St. Louis, Mo., unless stated otherwise. Bacterial strain and growth conditions. Most experiments were conducted with C. ljungdahlii ERI-2 (ATTC 55380), which has been used successfully for syngas to ethanol fermentation. Some experiments were repeated with C. ragsdalei P11 (ATTC BAA-622). Bacteria were grown anaerobically at 35° C. in medium designed for efficient syngas fermentation. This medium is mostly based on ATCC medium 1754 but contains higher concentrations of the macronutrient elements. The yeast extract concentration was 0.5 g/L or 0.0 g/L as indicated for each experiment; the concentration of MES (2-(N-morpholino)ethanesulfonic acid) was 150 mM; carboxylic acids (propionic, n-butyric, isobutyric, n-valeric or n-caproic acid) were added to final concentrations of 15 mM before adjustment of the pH to 5.5. The syngas atmosphere was a synthetic blend of 60% [vol/vol]carbon monoxide, 35% hydrogen, and 5% carbon dioxide (Airgas East, Ithaca, N.Y.). Precultures of C. ljungdahlii or C. ragsdalei were grown in 250 ml serum bottles containing 20 ml medium with 0.5 g/L or 0.0 g/L yeast extract (the latter for inoculation of experiments with no yeast extract) and syngas in the headspace at a pressure of 28 psi with finite amounts of syngas. Precultures were maintained in an active state by weekly transfer of 2% into a fresh serum bottle with a headspace of finite syngas.
Experimental setup. The experiments to determine the ability of C. ljungdahlii to reduce propionic acid, n-butyric acid, n-valeric acid, n-caproic acid, or isobutyric acid (2-methyl propionic acid) to the corresponding alcohols were performed in triplicate in 250 ml rubber-stoppered Pyrex glass bottles (Fisher Scientific, Pittsburgh, Pa.), which were used as batch systems in regards to the growth medium, but with constant syngas supply (FIG. 1A). Three stainless steel needles of different length (21 gauge, Becton Dickinson Franklin Lakes, N.J., and ColeParmer, Vernon Hills, Ill.) were punched through each rubber stopper as gas supply, vent, and sample ports. The reactors were filled with 220 mL medium containing 0.5 g/L yeast extract and one of each carboxylic acids at a concentration of 15 mM, autoclaved, and then equipped with fermentation airlocks (www.winemakingsuperstore.com) filled with 5% sulfuric acid to prevent contamination by other microbes or oxygen, and placed in a temperature-controlled recirculating water bath for mechanical agitation using a 15 multi-position IKA magnetic stirrer (Cole-Parmer Vernon Hills, Ill. 60061 USA). Artificial syngas was constantly supplied to up to 12 reactors at a time, at a flow rate of 5 mL/min to each reactor with a gassing station with multiple outlets and low-flow brass needle valves (McMaster-Carr, Aurora, Ohio), sterile Masterflex viton tubing (Cole Parmer, Vernon Hills, Ill.), 0.22-μm sterile filters (Fisher Scientific), and sterile needles through the rubber stopper (size 6.5, VWR, Radnor, Pa.) connected to gas diffusion stones (Fisher Scientific). All reactors were inoculated with 2% exponentially growing pre-cultures. The fermentation was operated for ca. 400 h.
(§2) Analytical procedures. Cell dry weight concentration in the cultures was determined through measurement of the optical density with a Milton Roy Spectronic 1201 spectrophotometer at a wavelength of 600 nm after determining a correlation coefficient of 242 mg dry weight/(L*OD600nm). The carbon content was calculated using the universal proportion of elements in microbial biomass (C5H7O2N). A gas chromatography system (HP 5890, Hewlett Packard, Palo Alto, Calif.), which was equipped with a 7673 autoinjector and flame ionization detector, was used for the quantification of carboxylic acids and alcohols. GC columns were purchased from Sigma-Aldrich, Inc., St. Louis, Mo. The flow rates of hydrogen, air, and helium were 35, 380, and 30 mL/min. […]

C. ragsdalei P11 = assay: as above; type: cell-based, Clostridium ragsdalei; settings: 15 mM carboxylic acid; for max. opt. density at 600 nm: triplicate
Procedure: as §1
Experimental setup. The experiments to determine the ability of C. ljungdahlii to reduce propionic acid, n-butyric acid, n-valeric acid, n-caproic acid, or isobutyric acid (2-methyl propionic acid) to the corresponding alcohols were performed in triplicate in 250 ml rubber-stoppered Pyrex glass bottles (Fisher Scientific, Pittsburgh, Pa.), which were used as batch systems in regards to the growth medium, but with constant syngas supply (FIG. 1A). Three stainless steel needles of different length (21 gauge, Becton Dickinson Franklin Lakes, N.J., and ColeParmer, Vernon Hills, Ill.) were punched through each rubber stopper as gas supply, vent, and sample ports. […]
as §2, with “alcohols.” for “alcohols. GC columns were purchased from Sigma-Aldrich, Inc., St. Louis, Mo. The flow rates of hydrogen, air, and helium were 35, 380, and 30 mL/min.”

C. ljungdahlii ERI-2 [2] = assay: Batch syngas fermentation in 1 L bottles with a finite amount of syngas (stoichiometry); type: cell-based, Clostridium ljungdahlii; settings: 15 mM n-butyric acid, 25 to 115 h
Procedure: The stoichiometry of substrates and products of syngas fermentation with 0 mM n-butyric acid and 15 mM n-butyric acid was determined in 1 L rubber-stoppered Pyrex glass bottles filled with […] medium without yeast extract and 1051.6 ml syngas headspace at a pressure of 28 psi. […] Here, yeast extract was omitted from the growth medium to minimize the interference of organic compounds (amino acids) in the fermentation. Two needles, each connected to a three-way valve, were used to take gas or liquid samples from the reactor. Gas pressure was measured using gauge pressure transducers (Model PX26, Omega Engineering, Inc., Stamford, Conn.) attached to hypodermic needles inserted through a rubber septum on the three-way valve of the sampling port. […] Cell density (OD600nm), pH, headspace gas pressure, concentrations of carbon monoxide, hydrogen, and carbon dioxide in the headspace, and concentrations of carboxylic acids and solvents in the culture medium were monitored daily. […]
Analytical procedures. Cell dry weight concentration in the cultures was determined through measurement of the optical density with a Milton Roy Spectronic 1201 spectrophotometer at a wavelength of 600 nm after determining a correlation coefficient of 242 mg dry weight/(L*OD600nm). The carbon content was calculated using the universal proportion of elements in microbial biomass (C5H7O2N). […]

| SMILES | growth rate (C. ljungdahlii ERI-2 [1]) | max. opt. density at 600 nm (C. ljungdahlii ERI-2 [1]) | growth rate (C. ragsdalei P11) | max. opt. density at 600 nm (C. ragsdalei P11) | cell mass DW (C. ljungdahlii ERI-2 [2]) | maximum OD600 (C. ljungdahlii ERI-2 [2]) |
| --- | --- | --- | --- | --- | --- | --- |
| CC(C)C(=O)O [isobutyric acid] | 0.077 ± 0.008 h⁻¹ | 2.50 ± 0.31 |  |  |  |  |
| CCCC(=O)O [n-butyric acid] | 0.094 ± 0.004 h⁻¹ | 2.71 ± 0.39 | 0.120 ± 0.004 h⁻¹ | 0.98 ± 0.05 | 16.65 ± 2.99 mg | 1.34 ± 0.21 |
| CCCCCC(=O)O [n-caproic acid] | 0.049 ± 0.003 h⁻¹ | 1.47 ± 0.17 |  |  |  |  |
| CCCCC(=O)O [n-valeric acid] | 0.077 ± 0.007 h⁻¹ | 2.01 ± 0.04 |  |  |  |  |
| CCC(=O)O [propionic acid] | 0.084 ± 0.012 h⁻¹ | 2.69 ± 0.19 | 0.093 ± 0.024 h⁻¹ | 0.53 ± 0.14 |  |  |

Source: patent US20150218599A1, “METHODS FOR PRODUCTION OF ALCOHOLS FROM CARBOXYLIC ACIDS VIA FERMENTATION” (Cornell University, priority 2012, published 2015)
